The nature of data set [1]: Retrospective review of adverse drug reaction (leukopenia, diarrhea, severe toxicity) in patients given irinotecan chemotherapy, correlated with UGT1A1 genotype. Type of data set: in vivo, Japanese patients. The conditions noted are these: for odds ratio of severe toxicity: logistic regression. The source says:
The subjects were Japanese patients who had received irinotecan administration in their chemotherapies from July 1994 to June 1999. For confirming the security of the patients, each patient was primarily ensured to have an adequate bone marrow function before the use of irinotecan: a leukocyte count of 3×10^9/liter or more, and a platelet count of 100×10^9/Iiter or more. In addition, the patients who had evidence of watery diarrhea, paralytic ileus, pulmonary interstitial pneumonia or fibrosis, massive ascites or pleural effusion, apparent jaundice, or anamnesis of hypersensitivity to irinotecan were excluded from the irinotecan use. As a result, 118 patients were used as a subject of this Example.
For confirming the adaptability to irinotecan, the complete blood count, platelet count and serum chemistry were assessed at least once a week. And bilirubin levels were always measured.
We retrospectively reviewed the clinical records including patients' characteristics (e.g. age, gender and the like), the dosage and schedule of irinotecan administration, the record of use of other drugs or radiotherapy, and observed adverse drug reaction caused by irinotecan (infusion). We counted the number of days when the patients received granulocyte colony stimulating factors (G-CSFs) or loperamide hydrochloride, the latter of which is commonly prescribed for irinotecan-induced diarrhea in Japan. Prophylactic administration of G-CSF prevented the apparent onset of neutropenia. Since the dose limiting toxicity of irinotecan is known to result in leukopenia and diarrhea, we defined as “severe toxicity” as leukopenia of grade 4 (0.9×10^9/liter) and the diarrhea of grade 3 or worse (grade 3 is for the watery diarrhea for 5 days or more; grade 4, the diarrhea with hemorrhagic or dehydration as classified in accordance with the Japan Society for Cancer Therapy criteria). No other adverse drug reactions were included in this example because they would be influenced by miscellaneous patients' backgrounds. The Serum total bilirubin levels were recorded with the scores just prior to irinotecan administration along with the highest of those after initiation of the therapy.
Blood was sampled from each patient (118 samples) and their genotypes were analyzed after irinotecan administration in each patient. […]
We analyzed the following variant sequences for each genomic DNA (see Fig. I): a two-extra-nucleotide (TA) insertion within the TATA box resulting in the sequence (TA)7TAA at positions −39 to −53, whose type is referred to as UGT1A1 *28; (Monaghan, G., Ryan, M., Seddon, R., Hume, R., and Burchell, B., Lancet, 347: 578-581, 1996, Bosma, P. J. et al., N. Engi. J. Med., 333: 1171-1175, 1995); a transition at codon 71 in exon I (from (G) to (A) at +211 locating in the downstream region from the initial site of the transcription) that changes glycine to arginine (represented by G71 R, whose type is referred to as UGT1A1*6); a transversion at codon 229 in exon I that alters proline to glutamine (represented by P229Q, whose type is referred to as UGT1A1*27); a trarisversion at codon 367 from (C) to (G) at position +1099 in exon 4 that converts arginine to glycine (represented by R367G, whose type is referred to as UGT1A1*29); and a transversion (+1456, T to G) at codon 486 in exon 5 that transforms tyrosine (Y) into aspartic acid (D) (represented by Y486D, whose type is referred to as UGTIA1*7). […]

The conditions of data set [2]: out of 1245 patients during period of clinical trials; cited from earlier work.

Regarding `CCc1c2c(nc3ccc(OC(=O)N4CCC(N5CCCCC5)CC4)cc13)-c1cc3c(c(=O)n1C2)COC(=O)[C@]3(O)CC` [irinotecan], the “odds ratio of severe toxicity” value was determined as 0.55 in data set [1] (UGT1A1*6, 95% CI 0.15-1.61, P>0.2) and 5.21 in data set [1] (genotype heterozygous or homozygous for UGT1A1*28, 95% CI 1.98-13.96, P<0.001). For the same compound, the “patients who experienced severe toxicity” value in data set [1] (all patients heterozygous for UGT1A1*27) amounted to 3 patients. Further, the “patients who experienced severe toxicity (leukopenia grade 4 and/or diarrhea grade 3 or worse)” value in data set [1] (of 118 patients given irinotecan, 92 did not) came to 26 patients. Moreover, in data set [1] (possession of UGT1A1*28, multiple logistic regression with gender and chemotherapy regimen (FIG. 5)), the “increase of severe toxicity of irinotecan” value worked out at 7 fold. For the same compound, the “deaths attributed to adverse drug reactions” value in data set [2] is 55 patients.
